Experiments:
[1] = tested on: LTB4 production by calcium ionophore-stimulated murine blood; assay: LTB4 production by calcium ionophore-stimulated murine blood for LTA4H inhibitor activity; assay type: cell-based, CD-1 mice; conditions: Mus musculus; murine blood diluted 1 in 15, calcium ionophore A23187, LTB4 by immunoassay; read-out: IC50
How it was run: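 LTB4 quantified by EIA in supernatants after murine (CD-1) heparinized whole blood was exposed to compound for 15 min, then to 7 μg/mL (final) A23187 for 30 min, all at 37° C. Reported values: single runs or means; three or more runs include SD.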

[2] = biological target: T1, recombinant human LTA4 hydrolase (rhLTA4H) (Homo sapiens, UniProt P09960); assay: Recombinant human LTA4 hydrolase assay for LTA4 hydrolase inhibitor activity; assay type: biochemical; conditions: rhLTA4H, LTA4 substrate, LTB4 by immunoassay; single determination or average; read-out: IC50
T1 construct: made in house; host or cells: Spodoptera frugiperda (Sf-9) cells, recombinant baculovirus (pFastBac1)
T1 sequence (P09960 1-611): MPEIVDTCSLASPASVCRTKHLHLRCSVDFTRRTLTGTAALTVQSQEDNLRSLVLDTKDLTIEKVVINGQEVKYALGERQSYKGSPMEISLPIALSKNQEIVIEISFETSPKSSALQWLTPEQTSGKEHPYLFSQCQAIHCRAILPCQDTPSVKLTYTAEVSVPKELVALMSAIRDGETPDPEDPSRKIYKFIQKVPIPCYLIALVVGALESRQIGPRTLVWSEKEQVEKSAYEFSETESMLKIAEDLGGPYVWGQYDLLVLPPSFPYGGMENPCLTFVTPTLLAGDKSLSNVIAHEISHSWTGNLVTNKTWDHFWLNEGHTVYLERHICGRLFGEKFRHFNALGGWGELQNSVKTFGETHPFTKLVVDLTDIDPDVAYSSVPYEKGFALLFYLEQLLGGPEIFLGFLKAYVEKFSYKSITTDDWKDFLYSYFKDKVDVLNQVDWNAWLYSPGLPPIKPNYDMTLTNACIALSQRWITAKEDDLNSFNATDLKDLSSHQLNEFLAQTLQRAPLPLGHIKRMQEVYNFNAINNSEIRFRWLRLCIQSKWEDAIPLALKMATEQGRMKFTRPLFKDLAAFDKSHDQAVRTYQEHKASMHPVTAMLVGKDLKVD
How it was run: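 LTB4 formed from LTA4 substrate (free acid from the methyl ester) was quantified by enzyme immunoassay after a 30 min rt reaction. Enzyme was 10 ng Sf-9-expressed human LTA4 hydrolase, pre-incubated 10 min with compound.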

[3] = tested on: ex vivo stimulated LTB4 production; assay: Murine arachidonic acid-induced inflammation model: ex vivo stimulated LTB4 production (% Inh. LTB4); conditions: Mus musculus; female Balb/c mice, 30 mg/kg oral gavage; blood taken 3 h after arachidonic acid, ex vivo A23187 stimulation; number of determinations in parentheses
Protocol: (§1) Assay 4: Murine Arachidonic Acid-Induced Inflammation Model
(§2) LTA4H inhibitor compounds of the present invention were dissolved in 20% cyclodextran/H2O at a concentration of 3 mg/mL. The solutions were administered by oral gavage to female Balb/c mice weighing approximately 20 grams each (0.2 mL per mouse, 30 mg of LTA4H inhibitor compound per kg). Sixty minutes after being administered an LTA4 inhibitor, each mouse received topical application of 20 μL of arachidonic acid (100 mg/mL in acetone) to the left ear and 20 μL of acetone only to the right ear. After 3 h, the mice were sacrificed, blood was withdrawn in heparinized syringes, and 8 mm ear biopsies were taken. Ear biopsies were weighed to determine edema and then frozen at −80° C. until needed for determination of neutrophil influx.
One hundred-microliter aliquots of heparinized blood were added to wells of a microtiter plate, along with equal volumes of RPMI-1640 medium, and calcium ionophore A23187 was added to each sample well (final concentration=[…]). The microtiter plate contents were incubated for 30 min at 37° C. in a humidified incubator. The reaction was terminated by centrifugation (833×g, 10 min at 4° C.). Supernatants were analyzed for LTB4 by a commercially available enzyme-linked immunoassay (Cayman Chemical Co.) in accordance with the manufacturer's instructions. The percent inhibition of ex vivo stimulated LTB4 production (% Inh. LTB4) was determined by comparison to animals treated identically except that the solution administered by oral gavage was devoid of inhibitor compound.
(§3) The number of determinations is indicated in parentheses following each value

neutrophil influx = assay: Murine arachidonic acid-induced inflammation model: neutrophil influx in ear, myeloperoxidase activity (% Inh. MPO); assay type: in vivo; conditions: Mus musculus, female Balb/c mice, 30 mg/kg oral gavage, ear biopsy 3 h after topical arachidonic acid, number of determinations in parentheses
Protocol: as §1, §2
Neutrophil influx was quantified by measuring the activity of myeloperoxidase (MPO), a neutrophil-specific enzyme. The ear biopsies were homogenized in 0.5 mL extraction buffer (0.3 M sucrose, 0.22% (w/v) hexadecyl trimethyl ammonium bromide (CTAB), and 2.5 mM citrate prepared from 0.5 M citrate stock solution (pH 5.0)), in a Fast-Prep-24 (MP™) (40 seconds at 6 mps). Debris was removed by centrifugation at 14000×g for 10 min. Aliquots of 10 μL of the resulting supernatant were added to wells of a microtiter plate, along with 90-μL aliquots of dilution buffer (10 mM citrate, 0.22% CTAB), followed by addition of 20 μL TMB liquid substrate system (Sigma Chemical Co.) to each sample well. The microtiter plate contents were held at room temperature until the sample with the highest concentration of MPO reached an absorbance value of 0.4 at 650 nm. The reaction was stopped by addition of 50 μL 1 M H2SO4 to each sample well, and the myeloperoxidase activity in each sample was determined from the absorbance at 405 nm. The background value from the right ear, treated only with acetone, was subtracted from that for the left ear, treated with arachidonic acid in acetone, for each animal. The percent inhibition of neutrophil influx (% Inh. MPO) by compounds of the invention was determined by comparison to animals treated identically, except that the solution administered by oral gavage was devoid of inhibitor compound.
as §3

For `CC(=O)N1C[C@@H]2CC[C@H]1CN2Cc1ccc(Oc2nc3ncccc3s2)cc1` [Example 290, 2-(4-{[(1S,4S)-5-Acetyl-2,5-diazabicyclo[2.2.2]oct-2-yl]methyl}phenoxy)[1,3]thiazolo[4,5-b]pyridine], the IC50 [1] was 5 nM, the IC50 [2] was 6 nM and the inhibition at 30 mg/kg [3] was 82.9%. The inhibition in vivo at 30 mg/kg (neutrophil influx) was 86.9%.

`c1cnc2nc(Oc3ccc(CN4CCC(N5CCOCC5)CC4)cc3)sc2c1` [Example 257, 2-{4-[(4-Morpholin-4-ylpiperidin-1-yl)methyl]phenoxy}[1,3]thiazolo[4,5-b]pyridine] showed an IC50 [1] of 97 nM, an IC50 [2] of 29 nM and an inhibition at 30 mg/kg [3] of 86%. The inhibition in vivo at 30 mg/kg (neutrophil influx) was 70.5%.

Compound `c1cnc2nc(Oc3ccc(CN4CCCCC4)cc3)sc2c1` [Example 85, 2-[4-(Piperidin-1-ylmethyl)phenoxy][1,3]thiazolo[4,5-b]pyridine] has an IC50 [1] of 37 nM, an IC50 [2] of 2.9 nM and an inhibition at 30 mg/kg [3] of 66.8%. For the same compound, the inhibition in vivo at 30 mg/kg (neutrophil influx) was 48.4%.

In the case of `c1cnc2nc(Oc3ccc(CCN4CCOCC4)cc3)sc2c1` [Example 59, 2-[4-(2-Morpholin-4-ylethyl)phenoxy][1,3]thiazolo[4,5-b]pyridine], the IC50 [1] is reported as 19 nM, the IC50 [2] is reported as 9 nM and the inhibition at 30 mg/kg [3] is reported as 92.7%. It also gave an inhibition in vivo at 30 mg/kg (neutrophil influx) of 89.9%.

`CC(=O)N[C@H]1C[C@H]2CC[C@@H](C1)N2Cc1ccc(Oc2nc3ncc(F)cc3s2)cc1` [Example 288] gave an IC50 [1] of 104 nM, an IC50 [2] of 15 nM and an inhibition at 30 mg/kg [3] of 61.7%. The inhibition in vivo at 30 mg/kg (neutrophil influx) was 94.6%.

Compound `CC(=O)N1CC2CN(Cc3ccc(Oc4nc5ncccc5s4)cc3)CC2C1` (centres unmarked) [Example 276, 2-{4-[(5-Acetylhexahydropyrrolo[3,4-c]pyrrol-2(1H)-yl)methyl]phenoxy}[1,3]thiazolo[4,5-b]pyridine] has an IC50 [1] of 10 nM, an IC50 [2] of 3 nM and an inhibition at 30 mg/kg [3] of 57.4%. The inhibition in vivo at 30 mg/kg (neutrophil influx) was 94.9%.

With `CC(=O)N[C@H]1C[C@H]2CC[C@@H](C1)N2CCc1ccc(Oc2nc3ncccc3s2)cc1` [Example 76, meso-N-[(3-endo)-8-{2-[4-([1,3]Thiazolo[4,5-b]pyridin-2-yloxy)phenyl]ethyl}-8-azabicyclo[3.2.1]oct-3-yl]acetamide] the IC50 [1] was 65 nM, the IC50 [2] was 0.5 nM and the inhibition at 30 mg/kg [3] was 85.3%. The inhibition in vivo at 30 mg/kg (neutrophil influx) was 78.3%.

`CC(=O)N1C[C@H]2C[C@@H]1CN2CCc1ccc(Oc2nc3ncccc3s2)cc1` [Example 79, 2-(4-{2-[(1R,4R)-5-Acetyl-2,5-diazabicyclo[2.2.1]hept-2-yl]ethyl}phenoxy)[1,3]thiazolo[4,5-b]pyridine] gave an IC50 [1] of 20 nM, an IC50 [2] of 6 nM and an inhibition at 30 mg/kg [3] of 86.7%. For the same compound, the inhibition in vivo at 30 mg/kg (neutrophil influx) was 82.2%.

`CC(=O)N1C[C@@H]2C[C@H]1CN2Cc1ccc(Oc2nc3ncccc3s2)cc1` [Example 127, 1-{(1S,4S)-5-[4-([1,3]Thiazolo[4,5-b]pyridin-2-yloxy)benzyl]-2,5-diazabicyclo[2.2.1]hept-2-yl}ethanone] gave an IC50 [1] of 7.5 nM, an IC50 [2] of 5 nM and an inhibition at 30 mg/kg [3] of 91.5%. For the same compound, the inhibition in vivo at 30 mg/kg (neutrophil influx) was 87.6%.

For `NC(=O)C1CCN(Cc2ccc(Oc3nc4ncc(F)cc4s3)cc2)CC1` [Example 283, 1-{4-[(6-Fluoro[1,3]thiazolo[4,5-b]pyridin-2-yl)oxy]benzyl}piperidine-4-carboxamide], the IC50 [1] was 68 nM, the inhibition at 30 mg/kg [3] was 78.2% and the inhibition in vivo at 30 mg/kg (neutrophil influx) was 88.3%.

Work on `CC(=O)N[C@@H]1C[C@H]2CC[C@@H](C1)N2CCc1ccc(Oc2nc3ncccc3s2)cc1` [Example 49, meso-N-[(3-exo)-8-{2-[4-([1,3]Thiazolo[4,5-b]pyridin-2-yloxy)phenyl]ethyl}-8-azabicyclo[3.2.1]oct-3-yl]acetamide] yielded an IC50 [1] of 76 nM, an IC50 [2] of 0.7 nM and an inhibition at 30 mg/kg [3] of 83%. The inhibition in vivo at 30 mg/kg (neutrophil influx) was 66%.

With `O=C1C[C@@H](O)CN1C1CCN(Cc2ccc(Oc3nc4ncccc4s3)cc2)CC1` [Example 269, (4R)-4-Hydroxy-1-{1-[4-([1,3]thiazolo[4,5-b]pyridin-2-yloxy)benzyl]piperidin-4-yl}pyrrolidin-2-one] the IC50 [1] was 77 nM, the IC50 [2] was 3 nM and the inhibition at 30 mg/kg [3] was 84.4%. It also gave an inhibition in vivo at 30 mg/kg (neutrophil influx) of 90.6%.

`CCN(CC)Cc1ccc(Oc2nc3ncccc3s2)cc1` [Example 111, N-Ethyl-N-[4-([1,3]thiazolo[4,5-b]pyridin-2-yloxy)benzyl]ethanamine] showed an IC50 [1] of 30 nM, an IC50 [2] of 6.6 nM and an inhibition at 30 mg/kg [3] of 56.8%. The inhibition in vivo at 30 mg/kg (neutrophil influx) was 66.9%.

`NC(=O)N1C[C@H]2CC[C@@H](C1)N2CCc1ccc(Oc2nc3ncccc3s2)cc1` [Example 54, meso-8-{2-[4-([1,3]Thiazolo[4,5-b]pyridin-2-yloxy)phenyl]ethyl}-3,8-diazabicyclo[3.2.1]octane-3-carboxamide] showed an IC50 [1] of 75 ± 71 nM, an IC50 [2] of 9.6 nM and an inhibition at 30 mg/kg [3] of 81.2%. The inhibition in vivo at 30 mg/kg (neutrophil influx) was 87.7%.

For `c1cnc2nc(Oc3ccc(CN4CCCC4)cc3)sc2c1` [Example 84, 2-[4-(Pyrrolidin-1-ylmethyl)phenoxy][1,3]thiazolo[4,5-b]pyridine], the IC50 [1] was 39 nM, the IC50 [2] was 2.1 nM and the inhibition at 30 mg/kg [3] was 53.9%. The inhibition in vivo at 30 mg/kg (neutrophil influx) was 72%.

In the case of `NC(=O)N1C[C@@H]2C[C@H]1CN2CCOc1ccc(Oc2nc3ncccc3s2)cc1` [Example 15, (1S,4S)-5-{2-[4-([1,3]Thiazolo[4,5-b]pyridin-2-yloxy)phenoxy]ethyl}-2,5-diazabicyclo[2.2.1]heptane-2-carboxamide], the IC50 [1] is reported as 310 nM, the IC50 [2] is reported as 29 ± 5.2 nM and the inhibition at 30 mg/kg [3] is reported as 61.9%. It also gave an inhibition in vivo at 30 mg/kg (neutrophil influx) of 47.7%.

For `CC(=O)N[C@H]1C[C@H]2CC[C@@H](C1)N2CCOc1ccc(Oc2nc3ncccc3s2)cc1` [Example 16, meso-N-[(3-endo)-8-{2-[4-([1,3]Thiazolo[4,5-b]pyridin-2-yloxy)phenoxy]ethyl}-8-azabicyclo[3.2.1]oct-3-yl]acetamide], the IC50 [1] was 26 nM, the IC50 [2] was 3 nM and the inhibition at 30 mg/kg [3] was 84.6%. For the same compound, the inhibition in vivo at 30 mg/kg (neutrophil influx) was 73.6%.

`NC(=O)C1CCN(CCc2ccc(Oc3nc4ncccc4s3)cc2)CC1` [Example 66, 1-{2-[4-([1,3]Thiazolo[4,5-b]pyridin-2-yloxy)phenyl]ethyl}piperidine-4-carboxamide] was tested, and the IC50 [1] was 40 nM, the IC50 [2] was 12 nM and the inhibition at 30 mg/kg [3] was 76.2%. For the same compound, the inhibition in vivo at 30 mg/kg (neutrophil influx) was 60%.

Source: patent US20110190503A1, “Thiazolopyridin-2-yloxy-phenyl and thiazolopyrazin-2-yloxy-phenyl amines as modulators of leukotriene A4 hydrolase” (Janssen Pharmaceutical NV, priority 2008, published 2011)
